# Measured values published in patent publication US11839663B2, “Radiolabelled MGL pet ligands” (Janssen Pharmaceutica NV, priority 2019, dated 2023).
# Columns and labels:
# [1] = target: MGL (Rattus norvegicus (Rat), UniProt Q8R431); assay: In vitro autoradiography (ARG) on frozen normal rat brain sections; assay type: binding; conditions: sagittal rat brain section 20 um, 400 uCi/ml in 50 mM Tris-HCl pH 7.4, 30 min at room temperature
# Description: In vitro ARG using the compound of Example 3 was performed on a frozen normal rat brain sections (sagittal cut, thickness at 20 um). After taken out from freezer for 15 min, the rat brain section was added 250 ul of buffer solution (50 mM Tris-HCl pH=7.4) which contains the compound of Example 3 with the concentration of 400 uCi/ml. The brain section was incubated with the incubation buffer at room temperature for 30 min, was then washed with blank fresh buffer solution for 5 min, repeated 3 times. The brain section was air-dried, exposed to a phosphor screen in a cassette in dark environment for 18 hours. The screen was then scanned then Typhoon™ FLA 7000 Image Analyzer (GE) to generate the autoradiography of the compound of Example 3 on rat brain section (FIG. 2). […] The distribution pattern matches IHC staining pattern described below.
# The IHC staining was performed on a frozen normal rat brain section (sagittal cut, thickness at 10 um) which is adjacent to the brain section used in ARG described above. After taken out from freezer for 15 min, the rat brain section was added 4% paraformaldehyde and fixed for 20 min at room temperature. The section was then washed with fresh phosphate buffer solution (PBS, 0.01 M, pH=7.4) for 5 min, repeated 3 times, followed by treatment of hydrogen peroxide solution (3% in PBS) at room temperature for 20 min. […]
# [2] = target: human MGL from HeLa cells (Homo sapiens (Human), UniProt Q99685); assay: MGL in vitro activity assay ([glycerol-1,3-3H]-oleyl glycerol cleavage); assay type: biochemical; conditions: 300 nM [Glycerol-1,3-3H]-oleyl glycerol, one hour incubation, endogenous MGL from HeLa cells
# Description: The assay used to measure the in vitro activity of MGL is adapted from the assay used for another serine hydrolase (FAAH) described in Wilson et al., 2003 (A high-throughput-compatible assay for determining the activity of fatty acid amide hydrolase. Wilson S J, Lovenberg T W, Barbier A J. Anal Biochem. 2003 Jul. 15; 318(2):270-5.). The assay consists of combining endogenously expressed MGL from HeLa cells with test compounds, adding [glycerol-1,3-^3H]-oleyl glycerol, incubating for one hour, and then measuring the amount of cleaved [1,3-^3H]-glycerol that passes through an activated carbon filter. The amount of cleaved, tritiated glycerol passing through the carbon filter is proportional to the activity of the MGL enzyme in a particular well/test condition.
# Standard conditions for this assay combine 300 nM [Glycerol-1,3-^3H]-oleyl glycerol with human MGL from HeLa cells and test compounds for one hour, after which the reaction is filtered through activated carbon and tritium is measured in the flow through. The test compound concentration in screening mode is 10 uM, while the highest compound concentration in IC50 assays is determined empirically. MGL is the predominant hydrolase in HeLa cells/cell homogenates.
# Chain of human MGL from HeLa cells (Q99685 whole entry): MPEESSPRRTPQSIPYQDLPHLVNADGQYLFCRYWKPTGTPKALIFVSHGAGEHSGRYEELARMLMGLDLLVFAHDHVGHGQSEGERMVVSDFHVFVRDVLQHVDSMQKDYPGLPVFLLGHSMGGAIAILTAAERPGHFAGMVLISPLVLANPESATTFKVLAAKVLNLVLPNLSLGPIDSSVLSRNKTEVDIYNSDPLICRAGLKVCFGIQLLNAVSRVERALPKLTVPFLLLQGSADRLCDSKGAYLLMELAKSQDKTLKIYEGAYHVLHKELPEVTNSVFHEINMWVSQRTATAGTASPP
# Chain of MGL (Q8R431 whole entry): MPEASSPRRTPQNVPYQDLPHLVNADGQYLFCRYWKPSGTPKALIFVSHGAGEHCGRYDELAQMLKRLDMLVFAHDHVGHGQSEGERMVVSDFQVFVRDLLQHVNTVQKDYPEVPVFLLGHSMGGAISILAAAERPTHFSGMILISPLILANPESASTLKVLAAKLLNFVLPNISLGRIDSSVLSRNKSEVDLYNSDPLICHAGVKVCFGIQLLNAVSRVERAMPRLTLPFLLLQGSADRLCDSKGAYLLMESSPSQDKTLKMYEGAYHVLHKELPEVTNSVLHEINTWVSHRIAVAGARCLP
SMILES,ARG signals (regional distribution) [1],IC50 [2] [pM]
C[C@H]1c2nn(C)c(-c3cc(F)cc(F)c3)c2CCN1C(=O)c1c([18F])cccc1Cl [Example 3],"high in hippocampus, cortex, cerebellum and thalamus regions and low in brainstem",–
"C[C@H]1c2nn(C)c(-c3cc(F)cc(F)c3)c2CCN1C(=O)c1c(F)cccc1Cl [Example 1, (S)-(2-Chloro-6-fluorophenyl)(3-(3,5-difluorophenyl)-2,7-dimethyl-2,4,5,7-tetrahydro-6H-pyrazolo[3,4-c]pyridin-6-yl)methanone]",–,2.3
